Assay: PK analysis of AK3287 in plasma and skin by LC/MS after application on wound
Assay type: in vivo, Duroc pig
Experimental: According to Table 4, 1 ml of the AK3287 emulsion or vehicle was administered to each of the wounds and smeared evenly on the wounds. The above administration treatment was carried out once daily. The time points for administration were set to start on Day 3 and end on Day 21.
3. Sample and analysis of PK test:
On Day 4, Day 9, Day 15, and Day 21 (i.e., on Day 1, Day 6, Day 12, and Day 18 after the first administration), a piece of circular skin was obtained by surgical incision with a skin biopsy punch (10 mm), after the animal was anesthetized and before the drug was smeared. Blood was sampled from the jugular vein and prepared as plasma. A total of 48 skin samples and 48 plasma samples were collected and subjected to PK analysis by LC/MS method.

- exposure in the skin, by dose group (skin, 0.5%, 2% and 8% emulsion groups, FIG. 3): higher in the high-dose group
SMILES: Cn1cc(-c2cn(-c3ccc(OC(F)(F)F)cc3)c(=O)c3ncn(C)c23)cn1 [AK3287]
- amount of AK3287 entering the blood (plasma PK) (plasma, application of emulsion on wound, FIG. 2): a small amount of AK3287 could enter the blood
- distribution of AK3287 in skin tissues (skin PK) (skin, application of emulsion on wound, FIG. 3): a majority of AK3287 remained in the skin tissues

From patent US20230293500A1, “AK3287 PREPARATION, AND PREPARATION METHOD THEREFOR AND APPLICATION THEREOF” (SUZHOU ARK BIOPHARMACEUTICAL CO., LTD., priority 2020, published 2023)
